Assay results from patent US7449312B2, “Kit for conducting a polymerase chain reaction” (The Secretary of State for Defense in Her Britannic …, priority 2001, dated 2008).
Where two headings read alike, the source gives them in different places.

Key:
[1] = tested on: thermostable DNA polymerases (Taq, Tbr, Tth, TspNH, Pfu, 9°N exo-, VENT, Accurase); assay: PCR with different thermostable DNA polymerases, with PPi and Sac PPase; assay type: biochemical; conditions: FIGS. 7a, 7b, 8b
Excerpt: A variety of thermostable DNA polymerases were employed in the method of the invention and some comparative assays. These included several non-proofreading Thermus sp. DNA polymerases, proof-reading hyperthermophilic archael DNA polymerases and mixes of non-proofreading and proofreading DNA polymerases.
They were all tested using the 500 bp lambda PCR as described in Example 1 (FIGS. 7a and 7b), and several using the Angiotensin assay as described in Example 4 (FIGS. 8a and 8b).

Taq DNA polymerase = Taq DNA polymerase (Thermus aquaticus, UniProt P19821); conditions: for suppression of PCR: results not shown
Taq DNA polymerase, sequence (P19821 whole entry): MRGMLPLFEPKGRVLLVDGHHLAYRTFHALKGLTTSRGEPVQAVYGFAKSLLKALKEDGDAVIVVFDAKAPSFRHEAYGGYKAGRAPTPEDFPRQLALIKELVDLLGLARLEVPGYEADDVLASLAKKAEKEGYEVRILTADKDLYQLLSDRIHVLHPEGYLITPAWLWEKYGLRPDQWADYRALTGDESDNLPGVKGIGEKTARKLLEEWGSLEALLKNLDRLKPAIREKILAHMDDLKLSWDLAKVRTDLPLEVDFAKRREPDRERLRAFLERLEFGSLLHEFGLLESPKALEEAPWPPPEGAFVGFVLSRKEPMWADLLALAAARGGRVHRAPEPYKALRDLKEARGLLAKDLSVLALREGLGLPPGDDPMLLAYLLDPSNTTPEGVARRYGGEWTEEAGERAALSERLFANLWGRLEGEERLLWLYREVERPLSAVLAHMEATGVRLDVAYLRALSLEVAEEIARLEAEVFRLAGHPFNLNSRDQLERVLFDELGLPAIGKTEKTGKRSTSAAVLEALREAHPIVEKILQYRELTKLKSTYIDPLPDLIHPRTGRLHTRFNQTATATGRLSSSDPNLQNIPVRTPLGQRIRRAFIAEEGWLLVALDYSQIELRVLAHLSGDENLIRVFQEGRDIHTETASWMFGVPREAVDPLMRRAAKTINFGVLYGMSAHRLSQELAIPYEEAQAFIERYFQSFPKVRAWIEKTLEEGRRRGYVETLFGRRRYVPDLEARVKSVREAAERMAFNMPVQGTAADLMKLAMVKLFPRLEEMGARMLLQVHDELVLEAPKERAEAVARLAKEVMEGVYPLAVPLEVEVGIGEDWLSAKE
Method: Using Taq DNA polymerase, a standard 500 bp lambda template PCR using the following reagents, was conducted in the presence of differing quantities of the inorganic pyrorphosphate, tetrasodium pyrophosphate decahydrate (PPi).
1× Reaction Buffer: 10 mM Tris. pH 8.0, 50 mM KCl.
(§1) PCR conditions for the assay were as follows:
The PPi was added such that the final concentration in the reaction mixture was 0, 1, 2, 3, 4 and 5 mM. In this Figure, the lanes correspond to the following concentrations of PPi
In order to eliminate this possibility, the procedure of Example 1 with 3 mM PPi was repeated in the presence of various concentrations of magnesium ions.
The example was repeated using concentrations of PPi of less than 1 mM.

[2] = tested on: 321 bp fragment of the human angiotensin gene; assay: Angiotensin PCR assay requiring a HotStart reaction; assay type: biochemical; conditions: up to two hours at ambient temperature; 0.2 u Sac PPase, 3 mM PPi
Excerpt: The method of the invention was then applied to an assay system that requires a “HotStart” reaction in order to generate a PCR product of the correct size.
The assay is based around the amplification of a 321 bp fragment of the human angiotensin gene. It has been recognised that the assay will only generate the correct amplification product in the presence of betaine (EP-A-0962526—see in particular Example 8).
Without betaine a HotStart DNA polymerase generates few non-specific amplification products or no products at all whereas a non-HotStart DNA polymerase PCR generates a large number of non-specific amplification products.
The PCR conditions used in the Angiotensin assay can be summarised as follows.
as §1
The reaction was conducted using a PE9700 Instrument in the presence of 3 mM PPi and 0.2 u PPase as described in Example 3.
The effect of leaving a PCR mixture containing 0.2 u Sac PPase and 3 mM PPi at room temperature 20° C. for various lengths of time prior to conducting the Angiotensin assay, was investigated. Although Sac PPase is a thermostable enzyme, it was possible that there would be a small level of enzyme activity at ambient temperatures. This might lead to insufficient PPi in the reaction to inhibit/stop the DNA polymerase leading to primer extension and lack of “HotStart” functionality. […]

[3] = 500 bp lambda PCR in the presence of PPi and PPase; assay type: biochemical; conditions: 0.2 u Sac PPase; 95° C. for 5 mins
Excerpt: The 500 bp lambda PCR of Example 1 was repeated, but this time, 0.2 u of Sulfolobus acidocaldarius PPase (Sac PPase) was included in reactions containing pyrophosphate (PPi).
The results are shown in FIG. 3 where the lanes represent the following reactions: […]

For `O.O.O.O.O.O.O.O.O.O.O=P([O-])([O-])OP(=O)([O-])[O-].[Na+].[Na+].[Na+].[Na+]` [PPi, tetrasodium pyrophosphate decahydrate], the “inhibition of DNA polymerases by PPi” value ([1]; 3 mM PPi, no PPase) was “inhibited”, the “suppression of PCR” value (Taq DNA polymerase; 0.4 mM PPi) was “did not completely suppress the PCR” and the “suppression of PCR” value (Taq DNA polymerase; 0.6 mM PPi) was “no PCR occurred”. For the same molecule, the “PCR with increasing magnesium ion concentration” value (Taq DNA polymerase; 3 mM PPi, Mg++ up to 10 mM final concentration, FIG. 2) was “does not allow PCR to occur” and the “PCR product formation in presence of PPi” value (Taq DNA polymerase; PPi 1, 2, 3, 4 and 5 mM final, 1.5 mM MgCl2, FIG. 1) was “no PCR product was produced”.

B1: Sac PPase: thermostable pyrophosphatase of Sulfolobus acidocaldarius, obtainable from GeneSys Limited (protein, UniProt P50308 1-173, looked up)
Inorganic pyrophosphatase: MKLSPGKNAPDVVNVLVEIPQGSNIKYEYDDEEGVIKVDRVLYTSMNYPFNYGFIPGTLEEDGDPLDVLVITNYQLYPGSVIEVRPIGILYMKDEEGEDAKIVAVPKDKTDPSFSNIKDINDLPQATKNKIVHFFEHYKELEPGKYVKISGWGSATEAKNRIQLAIKRVSGGQ
For B1, the “ambient temperature digestion of PPi by PPase” value [2] was “insufficient ambient temperature digestion of the PPi”, the “reversal of PPi inhibition by PPase” value ([1]; 3 mM PPi and 0.2u Sac PPase) was “inhibition could be overcome” and the “destruction of pyrophosphate so that the PCR reaction could proceed” value [3] was “sufficient to destroy the pyrophosphate”.
